The text below walks through data of US20100240065A1, “Prolyl Hydroxylase Compositions and Methods of Use Thereof” (Boehringer Ingelheim International GmbH, priority 2009, published 2010).

Assay [1] deals with recombinant rhesus HPH protein. The assay can be described thus: HPH enzyme activity assay, effect of cofactors and metal ions (isoform not given). Type of assay: biochemical, rhesus (Macaca mulatta).
For assay [2], the target named is T1, rhesus HPH3 (Macaca mulatta, UniProt H9FPE4).
T1 construct: fused on or other part: C-terminal GST tag used for purification and removed with thrombin before the assay
Put plainly: HPH enzyme TR-FRET assay (VBC-recognition of hydroxylated HIF peptide), HPH3. Type of assay: biochemical. As to conditions: inhibitory activity against rhesus HPH3. A general note: Time-resolved FRET reads energy transfer from a long-lived donor to a nearby acceptor.

For assay [3], the target named is rhesus HPH1 (Macaca mulatta, UniProt I2CX88). Put plainly: biochemical. The method, then:
(§1) The VBC protein complex was generated by co-expression of Glutathione S-Transferase-VHL (von Hippel Lindau), elongin B and elongin C in Escherichia coli followed by purification of the complex using glutathione affinity resin and size-exclusion chromatography. The HPH enzyme assay is conducted in the well of a 96- or 384-well plate. […] The time-resolved fluorescent signal (excitation at 330 nm; emission at 620 and 665 nm) is read on a plate reader after 1 h of incubation. The ratio of signal at 665 nm to 620 nm is used to calculate the amount of peptide interaction with GST-VBC as a measure of protein hydroxylation.
(§2) The activity of the HPH proteins was measured using an assay dependent upon VBC-recognition of a hydroxylated peptide. The VBC protein complex was generated by co-expression of Glutathione S-Transferase-VHL (von Hippel Lindau), elongin B and elongin C in Escherichia coli followed by purification of the complex using glutathione affinity resin and size-exclusion chromatography. The HPH enzyme assay is conducted in the well of a 96- or 384-well plate. […] The ratio of signal at 665 nm to 620 nm is used to calculate the amount of peptide interaction with GST-VBC as a measure of protein hydroxylation.

In assay [4] the target is rhesus HPH2 (Macaca mulatta, UniProt I2CX88). As to conditions: read-out: IC50 HPH2; inhibitory activity against rhesus HPH2. The method, then:
as §1, §2

Read-outs that look alike come from different tables or passages of the source.

Chain of rhesus HPH1 (I2CX88 1-426): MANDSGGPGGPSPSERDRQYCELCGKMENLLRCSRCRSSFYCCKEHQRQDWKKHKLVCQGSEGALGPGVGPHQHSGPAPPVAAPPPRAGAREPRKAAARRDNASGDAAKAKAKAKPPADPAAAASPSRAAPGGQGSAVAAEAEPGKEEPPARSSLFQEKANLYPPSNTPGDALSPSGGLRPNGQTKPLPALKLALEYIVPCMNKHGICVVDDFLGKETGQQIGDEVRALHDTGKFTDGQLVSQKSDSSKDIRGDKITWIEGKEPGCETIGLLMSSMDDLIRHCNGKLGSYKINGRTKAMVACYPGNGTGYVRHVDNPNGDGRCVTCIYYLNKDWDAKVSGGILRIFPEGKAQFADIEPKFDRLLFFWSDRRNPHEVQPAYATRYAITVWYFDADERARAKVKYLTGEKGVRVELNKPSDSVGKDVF
Chain of rhesus HPH2 (I2CX88 1-426): as above

As to `[Cl-].[Cl-].[Co+2]` [CoCl2], the “effect of addition on enzyme activity” value in assay [1] is recorded as “inhibited enzyme activity”. `[Fe+2]` [ferrous iron]: the “effect of addition on enzyme activity” value in assay [1] (recombinant rhesus HPH, isoform not stated) is listed as “increased the activity of the enzyme”. One may read the IC50 as the midpoint of a concentration-inhibition curve. Regarding `NNc1nncc2ccccc12` [Hydralazine], the IC50 in assay [2] was 54 µM; in assay [3], 400 µM. Consider `O=C(O)CCC(=O)O` [Succinate], for which the IC50 stood at 80 µM in assay [2]; 380 µM in assay [4]; 200 µM in assay [3] (read-out: IC50 HPH1, inhibitory activity against rhesus HPH1). `O=C(O)CNC(=O)C(=O)O` [N-oxalylglycine] registered an IC50 in assay [2] of 0.66 µM.
